Experimental data reported in patent US5260050A, “Methods and compositions for magnetic resonance imaging comprising superparamagnetic ferromagnetically coupled chromium complexes” (priority 1990, dated 1993).

Key:
[1] = test system: BRO-strain human malignant melanomas; experiment: MR imaging of human melanoma xenografts in nude mice; type: in vivo, human; Swiss nude mice; settings: i.v.
Method: The strong paramagnetic metal ion, gadolinium (Gd^+3), was chelated stoichiometrically to DTPA-Dextran 70 polymer, whose preparation is described in Example 1, paragraph 2 (improved formulation). Swiss nude mice were inoculated with BRO-strain human malignant melanomas, and these were allowed to grow to a 1-1.5 cm diameter. Moderately T1-weighted MR imaging (TR=500 msec, TE=40 msec) was performed in a standard Diasonics™ medical imager and a 30-cm RF head coil, before and after intravenous injection of equivalent doses of Gd-DTPA-Dextran-70 (0.03 mmol Gd/kg) or Gd-DTPA (0.1 mmol/kg) contrast agent. […] It will also be recognized that much lower doses of the stronger superparamagnetics (including doses below about 0.01 mmol/kg, versus 0.1 mmol/kg for Gd-DTPA) can be used to obtain effective MRI contrast enhancement; and that much faster, more heavily T1-weighted pulse sequences can be implemented in the presence of superparamagnetic-polymer conjugates or paired-ion complexes.

[2] = cited from earlier work
[3] = typically 15 MHz; cited from earlier work
[4] = in vivo; cited from earlier work
tumor = settings: in vivo; cited from earlier work
VX2 carcinoma cells = experiment: Histochemical platinum staining of perfused VX2 tumors; type: in vivo, rabbit; settings: intraarterial perfusion
Method: At 5 to 15 minutes postinjection, the animals were sacrificed, their lungs removed and fixed with intratracheal buffered formalin, tissue sections cut at 8 microns thickness, and the sections stained using a newly devised method for platinum which comprises a microwave-augmented iron-type stain (60° C.×2 minute×3 cycles) using a 1:1 mixture of 2% ferriferocyanide reagent and 4% HCl. […] To those skilled in the art, additional evidence for selective lung localization, was obtained by injecting intravenously, analogous (subembolizing) heparin-coated nanoparticles containing encapsulated amphotericin B, into identical mice, homogenizing the lungs, and documenting an 8-fold increment in drug levels over native amphotericin B (deoxycholate formulation, Fungizone; Squibb) recovered at 1 to 3 hours postinjection.
Additional documentation for maintenance of the cisplatin-carrier paired-ion complex in vivo was obtained as follows. […] Animals were sacrificed at 15 minutes, and the tumors and organs were homogenized extracted and analyzed by atomic absorption for tissue platinum concentrations, as shown in Table 1.
Additionally, histochemical platinum stains were performed on the tumor tissues, as described in Example 7.
Microinhomogeneities of tissue heating represent a major problem in hyperthermia treatment of tumors. […]

[5] = Permeability of tumor vascular walls; settings: transport by a polymeric carrier
tumor cells = experiment: Histology of heparin carrier transport into tumor cells; settings: histologically (not shown)

In the case of `CNC[C@H](O)[C@@H](O)[C@H](O)[C@H](O)CO.CNC[C@H](O)[C@@H](O)[C@H](O)[C@H](O)CO.O=C([O-])CN(CCN(CC(=O)[O-])CC(=O)O)CCN(CC(=O)[O-])CC(=O)O.[Gd+3]` [Gd-DTPA, gadolinium-diethylenetriaminepentaacetate (Gd-DTPA) dimeglumine], the “Fading of tumor enhancement” value ([1]; 0.1 mmol/kg, by one hour) is given as “completely faded”, the “Postcontrast interval at which optimal tumor enhancement began” value ([1]; 0.03 mmol Gd/kg (Gd-DTPA-dextran) or 0.1 mmol/kg (Gd-DTPA), TR=500, TE=40 msec) is given as 10 min and the Blood clearance half-time ([2]; bloodstream) is given as 20 min. The “Fading of tumor contrast enhancement” value ([2]; by 30 minutes postcontrast) was “almost complete fading (tumor clearance)”, the “Acute hepatic uptake interval” value ([2]; in vivo) was 5 to 45 min and the “Postinjection contrast interval / imaging window” value ([2]; in vivo) was 10 to 45 min. For the same compound, the Retained fraction ([2]; in vivo) was “less than 0.5%”, the “Fraction sequestered in the kidneys” value ([2]; intravenous) was greater than 90% and the “Relaxivity at higher clinical radio frequencies” value [3] was “moderate decrease in relaxivity”. The “Biodistribution, share of total body water” value [4] was “ca. 35 % of total body water” and the “Retention in tumor interstitium / tumor enhancement of comparator” value (tumor) was 10 to 45 min.
With `N.N.[Cl][Pt][Cl]` [cisplatin, cis-dichlorodiamine platinum] the Aggregated staining (VX2 carcinoma cells) was “absent”.
In the case of `OCC(O)CO` [glycerol], the “Permeability of tumor vascular walls” value [5] is reported as “increases the permeability of the vascular walls in the tumorous region”.
For heparin, the “Intracellular transport in tumor cells” value (tumor cells) was “transported inside tumor cells”.
